Assay results taken from patent US8501744B2, “Piperazine compounds” (Amura Therapeutics, Limited, priority 2008, dated 2013).

Biological target: Human recombinant cathepsin K (Homo sapiens (Human), UniProt P43235)
Assay: In vitro cathepsin Ki inhibition measurements
Format: biochemical
Conditions: for Ki: human recombinant cathepsin K, pH 5.5, Z-Leu-Arg-AMC substrate, read-out: In vitro Ki (nM) vs Cath K; for fold improvement in in vitro potency against human cathepsin K: relative to closest prior art compound (42)
Procedure: Stock solutions of substrate or inhibitor were made up to 10 mM in 100% dimethylsulfoxide (DMSO) (Rathburns, Glasgow, U.K.) and diluted as appropriately required. In all cases the DMSO concentration in the assays was maintained at less than 1% (vol./vol.). The equilibrium inhibition constants (Ki^ss) for each compound were measured under steady-state conditions monitoring enzyme activity as a function of inhibitor concentration. The values were calculated on the assumption of pure competitive behaviour (Cornish-Bowden, A. Fundamentals of enzyme kinetics Portland Press; 1995, 93-128.). Human recombinant cathepsin K (0.25 nM final; B. Turk, Josef, Stefan Institute, Ljubljana, Slovenia), was routinely assayed in 100 mM sodium acetate; pH 5.5 containing 1 mM EDTA, 10 mM L-cysteine and 1.8 μM Z-Leu-Arg-AMC ([S]=KM).
The apparent inhibition constant (Ki) for each compound was determined on the basis that inhibition was reversible and occurred by a pure-competitive mechanism. The Ki values were calculated, from the dependence of enzyme activity as a function of inhibitor concentration, by direct regression analysis (Prism v 3.02) using Equation 2 (Cornish-Bowden, A., 1995.).
In situations where the apparent dissociation constant (Ki^app) approached the enzyme concentrations, the Ki^app values were calculated using a quadratic solution in the form described by Equation 3 (Morrison, J. F. Trends Biochem. Sci., 7, 102-105, 1982; Morrison, J. F. Biochim. Biophys. Acta. 185, 269-286, 1969; Stone, S. R. and Hofsteenge, J. Biochemistry, 25, 4622-4628, 1986).
Curves were fitted by non-linear regression analysis (Prism) using a fixed value for the enzyme concentration. Equation 4 was used to account for the substrate kinetics, where ‘Ki’ is the inhibition constant, ‘[So]’ is the initial substrate concentration and ‘KM^app’ is the apparent macroscopic binding (Michaelis) constant for the substrate (Morrison, 1982).

Sequence of Human recombinant cathepsin K (P43235 115-329): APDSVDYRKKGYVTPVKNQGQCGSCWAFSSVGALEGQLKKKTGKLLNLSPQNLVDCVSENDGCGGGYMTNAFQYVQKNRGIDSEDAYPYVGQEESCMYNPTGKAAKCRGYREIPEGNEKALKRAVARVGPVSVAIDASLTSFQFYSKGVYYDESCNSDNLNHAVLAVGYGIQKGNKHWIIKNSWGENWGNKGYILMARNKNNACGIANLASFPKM

| SMILES | Ki [nM] | fold improvement in in vitro potency against human cathepsin K [fold] |
| --- | --- | --- |
| CC(C)[C@@H]1CN(C(=O)[C@@H](NC(=O)c2ccc(N3CCN(C)CC3)cc2)C2CCCC2)[C@@H]2C(=O)CO[C@@H]21 [Example 28, N—((S)-1-cyclopentyl-2-((3aS,6R,6aR)-6-isopropyl-3-oxodihydro-2H-furo [3,2-b]pyrrol-4(5H,6H,6aH)-yl)-2-oxoethyl)-4-(4-methylpiperazin-1-yl)benzamide] | 1.5 | 5.8 |
| CC(C)C[C@H](NC(=O)c1ccc(-c2csc(N3CCN(C)CC3)n2)cc1)C(=O)N1C[C@@H](C)[C@H]2OCC(=O)[C@H]21 [Example 16, N—((S)-4-methyl-1-((3aS,6R,6aR)-6-methyl-3-oxodihydro-2H-furo[3,2-b]pyrrol-4(5H,6H,6aH)-yl)-1-oxopentan-2-yl)-4-(2-(4-methylpiperazin-1-yl)thiazol-4-yl)benzamide] | 0.7 |  |
| CC[C@H]1CN(C(=O)[C@@H](NC(=O)c2ccc(N3CCN(C)CC3)cc2)C(C)(C)C)[C@@H]2C(=O)CO[C@H]12 [Example 25, N—((S)-1-((3aS,6S,6aR)-6-ethyl-3-oxodihydro-2H-furo[3,2-b]pyrrol-4(5H,6H,6aH)-yl)-3,3-dimethyl-1-oxobutan-2-yl)-4-(4-methylpiperazin-1-yl)benzamide] | 0.8 |  |
| CC[C@@H]1CN(C(=O)[C@@H](NC(=O)c2ccc(N3CCN(C)CC3)cc2)C2CCCC2)[C@@H]2C(=O)CO[C@H]12 [Example 27, N—((S)-1-cyclopentyl-2-((3aS,6R,6aR)-6-ethyl-3-oxodihydro-2H-furo[3,2-b]pyrrol-4(5H,6H,6aH)-yl)-2-oxoethyl)-4-(4-methylpiperazin-1-yl)benzamide] | 1.2 | 7.3 |
| CC[C@@H]1CN(C(=O)[C@@H](NC(=O)c2ccc(N3CCN(C)CC3)cc2)C(C)(C)C)[C@@H]2C(=O)CO[C@H]12 [Example 23, N—((S)-1-((3aS,6R,6aR)-6-ethyl-3-oxodihydro-2H-furo[3,2-b]pyrrol-4(5H,6H,6aH)-yl)-3,3-dimethyl-1-oxobutan-2-yl)-4-(4-methylpiperazin-1-yl)benzamide] | 4.4 |  |
| CC(C)[C@H]1CN(C(=O)[C@@H](NC(=O)c2ccc(N3CCN(C)CC3)cc2)C2CCCC2)[C@@H]2C(=O)CO[C@H]12 [Example 30, N—((S)-1-cyclopentyl-2-((3aS,6S,6aR)-6-isopropyl-3-oxodihydro-2H-furo[3,2-b]pyrrol-4(5H,6H,6aH)-yl)-2-oxoethyl)-4-(4-methylpiperazin-1-yl)benzamide] | 0.45 | 18.9 |
| CC(C)C[C@H](NC(=O)c1ccc(N2CCN(C)CC2)cc1)C(=O)N1C[C@@H](C(F)F)[C@H]2OCC(=O)[C@H]21 [Example 8, N—((S)-1-((3aS,6R,6aR)-6-(difluoromethyl)-3-oxodihydro-2H-furo[3,2-b]pyrrol-4(5H,6H,6aH)-yl)-4-methyl-1-oxopentan-2-yl)-4-(4-methylpiperazin-1-yl)benzamide] | 1.7 | 5.7 |
| CC[C@H]1CN(C(=O)[C@@H](NC(=O)c2ccc(N3CCN(C)CC3)cc2)C2CCCC2)[C@@H]2C(=O)CO[C@H]12 [Example 29, N—((S)-1-cyclopentyl-2-((3aS,6S,6aR)-6-ethyl-3-oxodihydro-2H-furo[3,2-b]pyrrol-4(5H,6H,6aH)-yl)-2-oxoethyl)-4-(4-methylpiperazin-1-yl)benzamide] | 0.4 | 22.9 |
| CC(C)C[C@H](NC(=O)c1ccc(N2CCN(C)CC2)cc1)C(=O)N1C[C@@H](C)[C@H]2OCC(=O)[C@H]21 [Example 1, N—((S)-4-methyl-1-((3aS,6R,6aR)-6-methyl-3-oxodihydro-2H-furo[3,2-b]pyrrol-4(5H,6H,6aH)-yl)-1-oxopentan-2-yl)-4-(4-methylpiperazin-1-yl)benzamide] | 2.5 | 3.5 |
| CC(C)[C@@H]1CN(C(=O)[C@@H](NC(=O)c2ccc(N3CCN(C)CC3)cc2)C(C)(C)C)[C@@H]2C(=O)CO[C@@H]21 [Example 24, N—((S)-1-((3aS,6R,6aH)-6-isopropyl-3-oxodihydro-2H-furo[3,2-b]pyrrol-4(5H,6H,6aH)-yl)-3,3-dimethyl-1-oxobutan-2-yl)-4-(4-methylpiperazin-1-yl)benzamide] | 3.2 |  |
| C[C@@H]1CN(C(=O)[C@@H](NC(=O)c2ccc(N3CCN(C)CC3)cc2)C2CCCC2)[C@@H]2C(=O)CO[C@H]12 [Example 4, N—((S)-1-cyclopentyl-2-((3aS,6R,6aR)-6-methyl-3-oxodihydro-2H-furo[3,2-b]pyrrol-4(5H,6H,6aH)-yl)-2-oxoethyl)-4-(4-methylpiperazin-1-yl)benzamide] | 1 | 8.7 |
| C[C@H]1CN(C(=O)[C@@H](NC(=O)c2ccc(N3CCN(C)CC3)cc2)C2CCCC2)[C@@H]2C(=O)CO[C@@H]21 [Example 7, N—((S)-1-cyclopentyl-2-((3aS,6S,6aR)-6-methyl-3-oxodihydro-2H-furo [3,2-b]pyrrol-4(5H,6H,6aH)-yl)-2-oxoethyl)-4-(4-methylpiperazin-1-yl)benzamide] | 0.35 | 24.9 |
| CC(C)C[C@H](NC(=O)c1ccc(N2CCN(C)CC2)cc1)C(=O)N1C[C@H](C)[C@H]2OCC(=O)[C@H]21 [Example 5, N—((S)-4-methyl-1-((3aS,6S,6aR)-6-methyl-3-oxodihydro-2H-furo[3,2-b]pyrrol-4(5H,6H,6aH)-yl)-1-oxopentan-2-yl)-4-(4-methylpiperazin-1-yl)benzamide] | 0.75 | 11.6 |
| CC(C)C[C@H](NC(=O)c1ccc(N2CCN(C)CC2)cc1)C(=O)N1C[C@H](C(F)F)[C@H]2OCC(=O)[C@H]21 [Example 12, N—((S)-1-((3aS,6S,6aR)-6-(difluoromethyl)-3-oxodihydro-2H-furo[3,2-b]pyrrol-4(5H,6H,6aH)-yl)-4-methyl-1-oxopentan-2-yl)-4-(4-methylpiperazin-1-yl)benzamide] | 0.8 | 10.9 |
| CC(C)[C@H]1CN(C(=O)[C@@H](NC(=O)c2ccc(N3CCN(C)CC3)cc2)C(C)(C)C)[C@@H]2C(=O)CO[C@H]12 [Example 26, N—((S)-1-((3aS,6S,6aR)-6-isopropyl-3-oxodihydro-2H-furo[3,2-b]pyrrol-4 (5H,6H,6aH)-yl)-3,3-dimethyl-1-oxobutan-2-yl)-4-(4-methylpiperazin-1-yl)benzamide] | 0.8 |  |
